From patent publication US6967196B1, “Sulfonamide compounds and uses thereof” (Bristol-Myers Squibb Company, priority 1999, dated 2005) come the findings set out here.

Where only a bound is given, the exact number is not on record here.

The subject of the first experiment is amyloid β production in transfected H4 (human neuroglioma) cells stably expressing APP constructs. Put plainly: In vitro cell-based assay of inhibitors of amyloid β production (ELISA). The following applies: Homo sapiens, 16 h, transfected H4 cells stably expressing APP constructs; approximately 16 hours incubation; amyloid β in medium by ELISA; read-out: ACTIVITY (IC50, inhibition of amyloid β production). The method in brief: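 Aβ secreted into the medium was determined by a two-antibody ELISA specific for the Aβ C-terminus, calibrated with known Aβ amounts. Before that, compounds (10-100 μM initially) were left on the cells for roughly 16 hours.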
(ELISA stands for enzyme-linked immunosorbent assay.)
For the compound `C[C@H](CCCS(=O)(=O)O)N(c1cc(Cl)ccc1F)S(=O)(=O)c1ccc(Cl)cc1` [Example 1192, (4R)-4-[N-[5-chloro-2-fluorophenyl][(4-chlorophenyl)sulfonyl]amino]pentylsulfonic acid], the IC50 (commonly the point on the concentration scale where inhibition reaches its midpoint) is 100 to 500 nM.
In the case of `C[C@H](CCCS(=O)(=O)O)N(c1cc(Cl)ccc1Cl)S(=O)(=O)c1ccc(Cl)cc1` [Example 1194, (4R)-4-[N-[2,5-dichlorophenyl][(4-chlorophenyl)sulfonyl]amino]pentylsulfonic acid], the IC50 fell in the range of 100 to 500 nM.
`COS(=O)(=O)CCC[C@@H](C)N(c1cc(Cl)ccc1Cl)S(=O)(=O)c1ccc(Cl)cc1` [Example 1195, methyl(4R)-4-[N-[2,5-dichlorophenyl][(4-chlorophenyl)sulfonyl]amino]pentylsulfonate]: the IC50 is greater than 500 nM.
On to `C[C@H](CCCS(=O)(=O)N1CCC1)N(c1cc(Cl)ccc1Cl)S(=O)(=O)c1ccc(Cl)cc1` [Example 1198, 4-chloro-N-[2,5-dichlorophenyl]-N-[4-[(1-azetidinyl)sulfonyl]-1(R)-methylbutyl]benzenesulfonamide], for which the IC50 is no more than 25 nM.
Consider `CNS(=O)(=O)CCC[C@@H](C)N(c1cc(Cl)ccc1Cl)S(=O)(=O)c1ccc(Cl)cc1` [Example 1199, 4-chloro-N-[2,5-dichlorophenyl]-N-[4-[(methylamino)sulfonyl]-1(R)-methylbutyl]benzenesulfonamide], for which the IC50 is no more than 25 nM.
Still for that read-out and setting: in the case of `C[C@H](CCCS(=O)(=O)N1CCC1)N(c1cc(F)ccc1F)S(=O)(=O)c1ccc(Cl)cc1` [Example 1200, 4-chloro-N-[2,5-difluorophenyl]-N-[4-[(1-azetidinyl)sulfonyl]-1(R)-methylbutyl]benzenesulfonamide] it was no more than 25 nM; in that of `C[C@H](CCCS(=O)(=O)N(C)C)N(c1cc(Cl)ccc1Cl)S(=O)(=O)c1ccc(Cl)cc1` [Example 1201, 4-chloro-N-[2,5-dichlorophenyl]-N-[4-[(dimethylamino)sulfonyl]-1(R)-methylbutyl]benzenesulfonamide], no more than 25 nM.
For `C[C@H](CCCS(=O)(=O)N(C)C)N(c1cc(Cl)ccc1F)S(=O)(=O)c1ccc(Cl)cc1` [Example 1202, 4-chloro-N-(5-chloro-2-fluorophenyl)-N-[4-[(dimethylamino)sulfonyl]-1(R)-methylbutyl]benzenesulfonamide], the half-inhibitory concentration (IC50) was no more than 25 nM.
Turning to `CNS(=O)(=O)CCC[C@@H](C)N(c1cc(Cl)ccc1F)S(=O)(=O)c1ccc(Cl)cc1` [Example 1203, 4-chloro-N-(5-chloro-2-fluorophenyl)-N-[4-[(methylamino)sulfonyl]-1(R)-methylbutyl]benzenesulfonamide], the half-maximal inhibitory concentration (IC50) was no more than 25 nM.
Still for that read-out and setting: as for `C[C@H](CCCS(=O)(=O)N1CCCC1)N(c1cc(Cl)ccc1Cl)S(=O)(=O)c1ccc(Cl)cc1` [Example 1204, 4-chloro-N-[2,5-dichlorophenyl]-N-[4-[(1-pyrrolidinyl)sulfonyl]-1(R)-methylbutyl]benzenesulfonamide], the figure is no more than 25 nM.
Still for that read-out and setting: as for `C[C@H](CCCS(=O)(=O)N1CCCC1)N(c1cc(Cl)ccc1F)S(=O)(=O)c1ccc(Cl)cc1` [Example 1205, 4-chloro-N-(5-chloro-2-fluorophenyl)-N-[4-[(1-pyrrolidinyl)sulfonyl]-1(R)-methylbutyl]benzenesulfonamide], the figure is no more than 25 nM.
Take `C[C@H](CCCS(=O)(=O)N(C)C)N(c1cc(F)ccc1F)S(=O)(=O)c1ccc(Cl)cc1` [Example 1206, 4-chloro-N-[2,5-difluorophenyl]-N-[4-[(dimethylamino)sulfonyl]-1(R)-methylbutyl]benzenesulfonamide]: the 50% inhibitory concentration (IC50) is no more than 25 nM.
On the same count and under the same terms, in the case of `CNS(=O)(=O)CCC[C@@H](C)N(c1cc(F)ccc1F)S(=O)(=O)c1ccc(Cl)cc1` [Example 1207, 4-chloro-N-[2,5-difluorophenyl]-N-[4-[(methylamino)sulfonyl]-1(R)-methylbutyl]benzenesulfonamide] it was no more than 25 nM; in that of `CCNS(=O)(=O)CCC[C@@H](C)N(c1cc(Cl)ccc1Cl)S(=O)(=O)c1ccc(Cl)cc1` [Example 1208, 4-chloro-N-[2,5-dichlorophenyl]-N-[4-[(ethylamino)sulfonyl]-1(R)-methylbutyl]benzenesulfonamide], no more than 25 nM.

Staying with this experiment, now noted: transfected H4 cells stably expressing APP constructs; approximately 16 hours incubation; amyloid β in medium by ELISA; read-out: ACTIVITY (IC50, inhibition of amyloid β production).
With `CC[S+]([O-])CCC[C@@H](C)N(c1cc(Cl)ccc1Cl)S(=O)(=O)c1ccc(Cl)cc1` (stereo partly drawn) [Example 1172, 4-chloro-N-[2,5-dichlorophenyl]-N-[1(R)-methyl-(4-ethylsulfinyl)butyl]benzenesulfonamide], the 50% inhibitory concentration (IC50) was no more than 25 nM.
In the case of `CC[S+]([O-])CCCC[C@@H](C)N(c1cc(Cl)ccc1Cl)S(=O)(=O)c1ccc(Cl)cc1` (stereo partly drawn) [Example 1173, 4-chloro-N-[2,5-dichlorophenyl]-N-[1(R)-methyl-(5-ethylsulfinyl)pentyl]benzenesulfonamide], the half-inhibitory concentration (IC50) is no more than 25 nM.
Still for that read-out and setting: in the case of `CC[S+]([O-])CCC[C@@H](C)N(c1cc(F)ccc1F)S(=O)(=O)c1ccc(Cl)cc1` (stereo partly drawn) [Example 1174, 4-chloro-N-[2,5-difluorophenyl]-N-[1(R)-methyl-(4-ethylsulfinyl)butyl]benzenesulfonamide] it was no more than 25 nM.
Turning to `C[C@H](CCC[S+](C)[O-])N(c1cc(F)ccc1F)S(=O)(=O)c1ccc(Cl)cc1` (stereo partly drawn) [Example 1175, 4-chloro-N-[2,5-difluorophenyl]-N-[1(R)-methyl-(4-methylsulfinyl)butyl]benzenesulfonamide], the IC50 was no more than 25 nM.
In the case of `CSCCC[C@@H](C)N(c1cc(Cl)ccc1Cl)S(=O)(=O)c1ccc(Cl)cc1` [Example 1176, 4-chloro-N-[2,5-dichlorophenyl]-N-[1(R)-methyl-(4-methylthio)butyl]benzenesulfonamide], the IC50 is no more than 25 nM.
Take `CCSCCC[C@@H](C)N(c1cc(F)ccc1F)S(=O)(=O)c1ccc(Cl)cc1` [Example 1177, 4-chloro-N-[2,5-difluorophenyl]-N-[1(R)-methyl-(4-ethylthio)butyl]benzenesulfonamide]: the IC50 was no more than 25 nM.
Consider `CSCCC[C@@H](C)N(c1cc(Cl)ccc1F)S(=O)(=O)c1ccc(Cl)cc1` [Example 1178, 4-chloro-N-[5-chloro-2-fluorophenyl]-N-[1(R)-methyl-(4-methylthio)butyl]benzenesulfonamide], for which the IC50 is no more than 25 nM.
On the same count and under the same terms, as for `CC(C)[S+]([O-])CCC[C@@H](C)N(c1cc(F)ccc1F)S(=O)(=O)c1ccc(Cl)cc1` (stereo partly drawn) [Example 1179], the figure is no more than 25 nM; as for `CCS(=O)(=O)CC[C@@H](C)N(c1cc(Cl)ccc1Cl)S(=O)(=O)c1ccc(Cl)cc1` [Example 1180, 4-chloro-N-[2,5-dichlorophenyl]-N-[1(R)-methyl-(3-ethylsulfonyl)propyl]benzenesulfonamide], no more than 25 nM; as for `C[C@H](CCSCC(=O)O)N(c1cc(Cl)ccc1Cl)S(=O)(=O)c1ccc(Cl)cc1` [Example 1181, (6R)-6-[(2,5-dichlorophenyl)-[(4-chlorophenyl)sulfonyl]-amino]-3-thioheptanoic acid], no more than 25 nM.
`CC(C)C[S+]([O-])CCC[C@@H](C)N(c1cc(Cl)ccc1Cl)S(=O)(=O)c1ccc(Cl)cc1` (stereo partly drawn) [Example 1182]: the IC50 is no more than 25 nM.
Turning to `CCSCCC[C@@H](C)N(c1cc(Cl)ccc1Cl)S(=O)(=O)c1ccc(Cl)cc1` [Example 1183, 4-chloro-N-[2,5-dichlorophenyl]-N-[1(R)-methyl-(4-ethylthio)butyl]benzenesulfonamide], the half-inhibitory concentration (IC50) is no more than 25 nM.
Consider `CC(C)CS(=O)(=O)CCC[C@@H](C)N(c1cc(Cl)ccc1Cl)S(=O)(=O)c1ccc(Cl)cc1` [Example 1184], for which the IC50 lay in the range of 25 to 50 nM.
On the same count and under the same terms, as for `CC[C@H](CSCC(=O)O)N(c1cc(Cl)ccc1Cl)S(=O)(=O)c1ccc(Cl)cc1` [Example 1186, (5R)-5-[(2,5-dichlorophenyl)-[(4-chlorophenyl)sulfonyl]-amino]-3-thioheptanoic acid], the figure is 25 to 50 nM; as for `COC(=O)C[S+]([O-])CC[C@@H](C)N(c1cc(Cl)ccc1Cl)S(=O)(=O)c1ccc(Cl)cc1` (stereo partly drawn) [Example 1187, methyl(6R)-6-[(2,5-dichlorophenyl)-[(4-chlorophenyl)sulfonyl]-amino]-3-thioheptanoic acid, 3-oxide], 50 to 100 nM.
Turning to `CC(C)CSCCC[C@@H](C)N(c1cc(Cl)ccc1Cl)S(=O)(=O)c1ccc(Cl)cc1` [Example 1188], the IC50 was 100 to 500 nM.
As for `CCSCC[C@@H](C)N(c1cc(Cl)ccc1Cl)S(=O)(=O)c1ccc(Cl)cc1` [Example 1189, 4-chloro-N-[2,5-dichlorophenyl]-N-[1(R)-methyl-(3-ethylthio)propyl]benzenesulfonamide], the IC50 fell in the range of 100 to 500 nM.
With `CC(C)SCCC[C@@H](C)N(c1cc(Cl)ccc1Cl)S(=O)(=O)c1ccc(Cl)cc1` [Example 1190], the 50% inhibitory concentration (IC50) is 100 to 500 nM.
For `COC(=O)CS(=O)(=O)CC[C@@H](C)N(c1cc(Cl)ccc1Cl)S(=O)(=O)c1ccc(Cl)cc1` [Example 1191, methyl(6R)-6-[(2,5-dichlorophenyl)-[(4-chlorophenyl)sulfonyl]-amino]-3-thioheptanoic acid, 3,3-dioxide], the IC50 lay in the range of 100 to 500 nM.
As for `COC(=O)C[S+]([O-])CC[C@@H](C)N(c1cc(Cl)ccc1Cl)S(=O)(=O)c1ccc(Cl)cc1` (stereo partly drawn) [Example 1193, methyl(6R)-6-[(2,5-dichlorophenyl)-[(4-chlorophenyl)sulfonyl]-amino]-3-thioheptanoic acid, 3-oxide], the 50% inhibitory concentration (IC50) was 100 to 500 nM.
Consider `C[C@H](CC[S+]([O-])CC(=O)O)N(c1cc(Cl)ccc1Cl)S(=O)(=O)c1ccc(Cl)cc1` (stereo partly drawn) [Example 1196, (6R)-6-[(2,5-dichlorophenyl)-[(4-chlorophenyl)sulfonyl]-amino]-3-thioheptanoic acid, 3-oxide], for which the concentration for half-maximal inhibition (IC50) is greater than 500 nM.
For `C[C@H](CCS(=O)(=O)CC(=O)O)N(c1cc(Cl)ccc1Cl)S(=O)(=O)c1ccc(Cl)cc1` [Example 1197, (6R)-6-[(2,5-dichlorophenyl)-[(4-chlorophenyl)sulfonyl]-amino]-3-thioheptanoic acid, 3,3-dioxide], the IC50 is greater than 500 nM.
